“Also recorded” adds a separate entry of the source. Read-outs that look alike come from different tables or passages of the source.
Experiments:
[1] = tested on: liver cell carcinoma cell line Hep-G2; assay: Cytotoxicity screening and LD50 determination on Hep-G2 (LDH, CytoTox-One); format: cell-based; conditions: 100 μM, Hep-G2
Procedure: Cytotoxicity of the compounds may be screened using the liver cell carcinoma cell line Hep-G2.
After 24 h of cultivation in a 96 well plate (50 000 cells/well) compounds (dissolved in DMSO) are added and cytotoxicity and vitality of the cells are analysed after another 24 h of cultivation using the CytoTox-One Homogenoeous membrane toxicity assay (Promega).
Three concentrations (100 μM, 2 μM, 40 nM) of each compound are analysed in triplicates. The final DMSO concentration was 1%.
For cytotoxicity the LDH activity in the cell culture media after 24 h of incubation are analysed. The untreated control is set to 0% cytotoxicity. For the 100% value LDH activity of lysed untreated cells are analysed.
For viability cell culture media are removed from the cells and all cells are lysed using the lysis buffer. LDH activity is determined and untreated control is set to 100% viability.
For determination of LD50 the liver carcinoma cell line HEP-G2 and the neuroblastoma cell line SY5Y may be used. The effect of 8 serial dilutions of the compounds (highest concentration 1 mM) is investigated as described above.
The cytotoxicity of certain example compounds (in each case prepared by preparative synthesis) was screened using Hep-G2 cells. Compounds were tested in concentrations of 100 μM, 2 μM and 40 nM.

[2] = target: DP IV (Homo sapiens, UniProt P27487); assay: DP IV inhibition IC50, parallel-synthesis compounds tested directly following synthesis (without purification); format: biochemical; design: IC50 DP4; other: tested directly following parallel synthesis, without purification; compounds of formula (Ib) from parallel synthesis, tested directly following synthesis
Method in brief: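 Porcine kidney or recombinant human enzyme (~40-50 μU/ml, HEPES buffer) hydrolysing Gly-Pro-pNA at room temperature, with 5% DMSO final; 11-point 1:2 dilutions from 100 μM final, in duplicate. pNA release read at 405 nm over ~18 min; slopes vs solvent control give residual activity, and IC50 comes from a 4-parameter fit.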

[3] = DP IV inhibition, compounds of formula (Ib) from parallel synthesis, tested directly following synthesis (without purification), read-out: IC50
[4] = tested directly following parallel synthesis, without purification, read-out: IC50 DP4

Compound: NCc1c(-c2ccc(Cl)cc2Cl)ncn1CC12CC3CC(CC(C3)C1)C2 [Example 14b, C-[3-Adamantan-1-ylmethyl-5-(2,4-dichloro-phenyl)-3H-imidazol-4-yl]-methylamine]
- cytotoxic effects (summary in words) [1]: No cytotoxic effects
- IC50 [2, 3]: 19 µM

Compound: CC(C)CCn1cnc(-c2ccc(Cl)cc2Cl)c1CN [Example 7b, C-[5-(2,4-Dichloro-phenyl)-3-(3-methyl-butyl)-3H-imidazol-4-yl]-methylamine]
- cytotoxic effects (summary in words) [1]: Strong cytotoxic effects; also recorded: strongest cytotoxicity
- IC50 [2, 3]: 8.2 µM

Compound: CCCCCn1cnc(-c2ccc(Cl)cc2Cl)c1CN [Example 12b, C-[5-(2,4-Dichloro-phenyl)-3-pentyl-3H-imidazol-4-yl]-methylamine]
- cytotoxic effects (summary in words) [1]: No cytotoxic effects
- IC50 [2, 3]: 6.4 µM

Compound: NCc1c(-c2ccc(Cl)cc2Cl)ncn1Cc1ccccc1F [Example 62a, C-[5-(2,4-Dichloro-phenyl)-3-(2-fluoro-benzyl)-3H-imid-azol-4-yl]-methyl-amine]
- IC50 [2, 4]: 0.1 µM

Compound: NCc1c(-c2ccc(Cl)cc2Cl)ncn1Cc1ccc(Cl)cc1 [82b, C-[3-(4-Chloro-benzyl)-5-(2,4-dichloro-phenyl)-3H-imidazol-4-yl]-methylamine]
- IC50 [2, 3]: 15.4 µM

Compound: NCc1c(-c2ccc(F)cc2F)ncn1Cc1ccco1 [Example 72a, C-[5-(2,4-Difluoro-phenyl)-3-furan-2-ylmethyl-3H-imidazol-4-yl]-methylamine]
- IC50 [2, 4]: 11.8 µM

Compound: NCc1c(-c2ccc(F)cc2Cl)ncn1Cc1ccsc1 [Example 11a, C-[5-(2-Chloro-4-fluoro-phenyl)-3-thiophen-3-ylmethyl-3H-imidazol-4-yl]-methylamine]
- IC50 [2, 4]: 4.6 µM

Compound: Cn1cccc1Cn1cnc(-c2ccc(Cl)cc2Cl)c1CN [Example 64a, C-[5-(2,4-Dichloro-phenyl)-3-(1-methyl-1H-pyrrol-2-yl-methyl)-3H-imid-azol-4-yl]-methyl-amine]
- IC50 [2, 4]: 27.1 µM

Compound: Cc1[nH]ncc1CCCn1cnc(-c2ccc(Cl)cc2Cl)c1CN [87b, C-{5-(2,4-Dichloro-phenyl)-3-[3-(5-methyl-1H-pyrazol-4-yl)-propyl]-3H-imidazol-4-yl}-methylamine]
- IC50 [2, 3]: 8.2 µM

Compound: CC(N)c1c(-c2ccc(Cl)cc2Cl)ncn1Cc1ccccc1Cl (centres unmarked) [67b, 1-[3-(2-Chloro-benzyl)-5-(2,4-dichloro-phenyl)-3H-imidazol-4-yl]-ethylamine]
- IC50 [2, 3]: 28.9 µM

Compound: NCc1c(-c2ccc(Cl)cc2Cl)ncn1CCc1ccccc1F [83b, C-{5-(2,4-Dichloro-phenyl)-3-[2-(2-fluoro-phenyl)-ethyl]-3H-imidazol-4-yl}-methylamine]
- IC50 [2, 3]: 5.5 µM

Compound: NCc1c(-c2ccc(Cl)cc2Cl)ncn1CCc1cccc(Cl)c1 [52b, C-[3-[2-(3-Chloro-phenyl)-ethyl]-5-(2,4-dichloro-phenyl)-3H-imidazol-4-yl]-methylamine]
- IC50 [2, 3]: 5.5 µM

Compound: NCc1c(-c2ccc(F)cc2Cl)ncn1Cc1c(Cl)cccc1Cl [Example 26a, C-[5-(2-Chloro-4-fluoro-phenyl)-3-(2,6-di-chloro-benzyl)-3H-imid-azol-4-yl]-methyl-amine]
- IC50 [2, 4]: 39.7 µM

Compound: NCc1c(-c2ccc(F)cc2F)ncn1Cc1cc(Br)ccc1F [Example 79a, C-[3-(5-Bro-mo-2-fluoro-benzyl)-5-(2,4-difluoro-phenyl)-3H-imid-azol-4-yl]-methyl-amine]
- IC50 [2, 4]: 32.5 µM

Compound: NCc1c(-c2ccc(Cl)cc2Cl)ncn1CCN1CCCCC1 [58b, C-[5-(2,4-Dichloro-phenyl)-3-(2-piperidin-1-yl-ethyl)-3H-imidazol-4-yl]-methylamine]
- IC50 [2, 3]: 42.4 µM

Compound: NCc1c(-c2ccc(Cl)cc2Cl)ncn1Cc1cccc(C(F)(F)F)c1 [89b, C-[5-(2,4-Dichloro-phenyl)-3-(3-trifluoromethyl-benzyl)-3H-imidazol-4-yl]-methylamine]
- IC50 [2, 3]: 1.9 µM

Compound: CC(C)CCCCCCn1cnc(-c2ccc(Cl)cc2Cl)c1C(C)N (centres unmarked) [51b, 1-[5-(2,4-Dichloro-phenyl)-3-(7-methyl-octyl)-3H-imidazol-4-yl]-ethylamine]
- IC50 [2, 3]: 37.9 µM

Compound: NCc1c(-c2ccc(Cl)cc2Cl)ncn1Cc1ccccn1 [Example 65a, C-[5-(2,4-Dichloro-phenyl)-3-pyri-din-2-yl-methyl-3H-imid-azol-4-yl]-methyl-amine]
- IC50 [2, 4]: 1.9 µM

Compound: NCc1c(-c2ccc(Cl)cc2Cl)ncn1Cc1cccc(F)c1 [Example 42a, C-[5-(2,4-Dichloro-phenyl)-3-(3-fluoro-benzyl)-3H-imid-azol-4-yl]-methyl-amine]
- IC50 [2, 4]: 1 µM

Compound: NCc1c(-c2ccc(Cl)cc2Cl)ncn1Cc1cccc(F)c1 [Example 28b, C-[5-(2,4-dichloro-phenyl)-3-(3-fluoro-benzyl)-3H-imidazol-4-yl]-methylamine]
- IC50 [2, 3]: 1.9 µM

Compound: CC(N)c1c(-c2ccc(Cl)cc2Cl)ncn1Cc1ccccc1 (centres unmarked) [109b, 1-[3-Benzyl-5-(2,4-dichloro-phenyl)-3H-imidazol-4-yl]-ethylamine]
- IC50 [2, 3]: 7.3 µM

Compound: NCc1c(-c2ccc(Cl)cc2Cl)ncn1Cc1ccc(C(F)(F)F)cc1 [98b, C-[5-(2,4-Dichloro-phenyl)-3-(4-trifluoromethyl-benzyl)-3H-imidazol-4-yl]-methylamine]
- IC50 [2, 3]: 27.1 µM

Compound: NCc1c(-c2ccc(Cl)cc2Cl)ncn1Cc1cccc(Cl)c1Cl [Example 52a, C-[3-(2,3-Dichloro-benzyl)-5-(2,4-dichloro-phenyl)-3H-imid-azol-4-yl]-methyl-amine]
- IC50 [2, 4]: 2.8 µM

Compound: COCCn1cnc(-c2ccc(Cl)cc2Cl)c1CN [60b, C-[5-(2,4-Dichloro-phenyl)-3-(2-methoxy-ethyl)-3H-imidazol-4-yl]-methylamine]
- IC50 [2, 3]: 20.8 µM

Compound: NCc1c(-c2ccc(Cl)cc2Cl)ncn1CCc1ccc(Cl)cc1 [102b, C-[3-[2-(4-Chloro-phenyl)-ethyl]-5-(2,4-dichloro-phenyl)-3H-imidazol-4-yl]-methylamine]
- IC50 [2, 3]: 19 µM

Compound: NCc1c(-c2ccc(F)cc2Cl)ncn1Cc1ccccn1 [Example 30a, C-[5-(2-Chloro-4-fluoro-phenyl)-3-pyri-din-2-yl-methyl-3H-imid-azol-4-yl]-methyl-amine]
- IC50 [2, 4]: 25.3 µM

Compound: NCc1c(-c2ccc(F)cc2F)ncn1Cc1ccccc1F [Example 86a, C-[5-(2,4-Difluoro-phenyl)-3-(2-fluoro-benzyl)-3H-imid-azol-4-yl]-methyl-amine]
- IC50 [2, 4]: 32.5 µM

Compound: NCc1c(-c2ccc(Cl)cc2Cl)ncn1Cc1ccc(-c2ccccc2)cc1 [75b, C-[3-Biphenyl-4-ylmethyl-5-(2,4-dichloro-phenyl)-3H-imidazol-4-yl]-methylamine]
- IC50 [2, 3]: 23.5 µM

Compound: CC(N)c1c(-c2ccc(Cl)cc2Cl)ncn1CCN1CCOCC1 (centres unmarked) [118b, 1-[5-(2,4-Dichloro-phenyl)-3-(2-morpholin-4-yl-ethyl)-3H-imidazol-4-yl]-ethylamine]
- IC50 [2, 3]: 49.6 µM

Compound: CCCCCCn1cnc(-c2ccc(Cl)cc2Cl)c1CN [84b, C-[5-(2,4-Dichloro-phenyl)-3-hexyl-3H-imidazol-4-yl]-methylamine]
- IC50 [2, 3]: 1 µM

Compound: NCc1c(-c2ccc(F)cc2Cl)ncn1Cc1cccc(Cl)c1Cl [Example 20a, C-[5-(2-Chloro-4-fluoro-phenyl)-3-(2,3-di-chloro-benzyl)-3H-imid-azol-4-yl]-meth-ylamine]
- IC50 [2, 4]: 34.3 µM

Compound: COc1ccc(Cn2cnc(-c3ccc(Cl)cc3Cl)c2C(C)N)cc1OC (centres unmarked) [95b, 1-[5-(2,4-Dichloro-phenyl)-3-(3,4-dimethoxy-benzyl)-3H-imidazol-4-yl]-ethylamine]
- IC50 [2, 3]: 19.9 µM

Compound: NCc1c(-c2ccc(Cl)cc2Cl)ncn1Cc1ccc(F)cc1F [Example 54b, C-[5-(2,4-dichloro-phenyl)-3-(2,4-difluoro-benzyl)-3H-imidazol-4-yl]-methylamine]
- IC50 [2, 3]: 4.6 µM

Compound: NCc1c(-c2ccc(Cl)cc2Cl)ncn1Cc1ccc(Cl)c(Cl)c1 [Example 58a, C-[3-(3,4-Dichloro-benzyl)-5-(2,4-dichloro-phenyl)-3H-imid-azol-4-yl]-methyl-amine]
- IC50 [2, 4]: 1.9 µM

Compound: NCc1c(-c2ccc(F)cc2Cl)ncn1Cc1cc(Br)ccc1F [Example 12a, C-[3-(5-Bromo-2-fluoro-benzyl)-5-(2-chloro-4-fluoro-phenyl)-3H-imid-azol-4-yl]-methyl-amine]
- IC50 [2, 4]: 32.5 µM

Compound: NCc1c(-c2ccc(Cl)cc2Cl)ncn1CCN1CCCC1 [26b, C-[5-(2,4-Dichloro-phenyl)-3-(2-pyrrolidin-1-yl-ethyl)-3H-imidazol-4-yl]-methylamine]
- IC50 [2, 3]: 40.6 µM

Compound: NCc1c(-c2ccc(Cl)cc2Cl)ncn1Cc1c(Cl)cccc1Cl [Example 60a, C-[3-(2,6-Dichloro-benzyl)-5-(2,4-dichloro-phenyl)-3H-imid-azol-4-yl]-methyl-amine]
- IC50 [2, 4]: 2.8 µM

Compound: NCc1c(-c2ccc(F)cc2Cl)ncn1Cc1ccccc1Cl [Example 3a, C-[3-(2-Chloro-benzyl)-5-(2-chlo-ro-4-fluoro-phenyl)-3H-imid-azol-4-yl]-methyl-amine]
- IC50 [2, 4]: 18.1 µM

Reference: patent US7728146B2, “Enzyme inhibitors” (Probiodrug AG, priority 2006, dated 2010)
